Data reported in patent publication US20250206761A1, “HALOINDOLE MACROCYCLIC COMPOUNDS FOR THE TREATMENT OF CANCER” (Hoffmann-La Roche Inc., priority 2022, published 2025).

How the values were obtained:
[1] = test system: SW620 (ATCC-CCL-227); assay: Cell viability assay, G12V (SW620); assay type: cell-based, human; settings: KRAS cell viability, SW620, 72 hrs, Cell Counting Kit-8
Outline: (§1)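 Cells seeded at 5,000/well (NCI-H358) or 2,000/well (AGS, SW620), treated next day at 0.5% final DMSO for 72 h. Viability read by CCK-8 (OD450 minus OD650) after 2 h; IC50 from 4-parameter sigmoidal fit.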

[2] = test system: phosphorylation of ERK, KRAS G12D in AGS cells; assay: pERK inhibition assay, KRAS G12D; assay type: cell-based, human; settings: Homo sapiens, 4 hours
Protocol: This assay is to measure the ability of test compounds in inhibiting the phosphorylation of ERK, the downstream signaling of KRAS G12C in NCJ-H358 cells, KRAS G12D in AGS cells, and KRAS G12V in SW620. NCJ-H358 (ATCC-CRL5807) cells, AGS (ATCC-CRL-1739) cells, SW620 (ATCC-CCL-227) cells were all grown and maintained using RPMI-1640 medium (Thermo Fisher Scientific) with 10% fetal bovine serum and 1% penicillin/streptomycin. On the day prior to compound addition, cells were plated in tissue culture-treated 96 well plates (Corning-3699) at a density of 30,000 cell/well, 20,000 cell/well, 30,000 cell/well for NCJ-H358, AGS and SW620 respectively, and allowed for attachment overnight. Diluted compounds were then added in a final concentration of 0.5% DMSO. After 4 hours of incubation, the medium was removed, 100 μL of 4% formaldehyde was added, and the assay plates were incubated at room temperature for 20 minutes. The plates were then washed once with phosphate buffered saline (PBS), and permeabilized with 100 μL of chilled methanol for 10 minutes. Non-specific antibody binding to the plates was blocked using 50 μL 1×BSA blocking buffer (Thermo-37520, 10-fold dilution by Phosphate-Buffered Saline Tween (PBST) for at least 1 hour at room temperature.
The amount of phosphor-ERK was determined using an antibody specific for phosphorylated form of ERK. Primary antibody (pERK, CST-4370, Cell Signaling Technology) was diluted 1:300 in blocking buffer, with 50 μL aliquoted to each well, and incubated overnight at 4′° C. Cells was washed five times for 5 minutes with PBST. Secondary antibody ([…] anti-rabbit IgG, CST-7074, Cell Signaling Technology) was diluted 1:1000 in blocking buffer, and 50 μL was added to each well and incubated 1-2 hrs at room temperature. Cells was washed 5 times for 5 minutes with PBST, 100 μL TMB ELISA substrate (abcam-ab171523) were added and gently shake for 20 minutes. 50 μL stop solution (abcam-ab171529) were added, and then read the signal (OD450) by EnVision.
IC50 was determined by fitting a 4-parameter sigmoidal concentration response model.

[3] = biological target: KRAS G12V binding to BRAF (Homo sapiens (Human), UniProt P01116+P62937, G12V); assay: KRAS-BRAF with CYPA (500 nM) interaction assay (TR-FRET), G12V; assay type: biochemical
Outline: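 A TR-FRET assay measured how compound, in the presence of CYPA, disrupts binding of GMPPNP-loaded 6His-KRAS G12V to BRAF. The buffer contained 25 mM HEPES PH=7.4, 0.002% Tween20, 0.1% BSA, 100 mM NaCl, 5 mM MgCl2 and 10 μM GMPPNP. Compounds ran as a 16-point 3-fold dilution series from 10 μM for 3 hours.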

[4] = biological target: KRAS G12D binding to BRAF (Homo sapiens (Human), UniProt P01116+P62937, G12D); assay: KRAS-BRAF with CYPA (500 nM) interaction assay (TR-FRET), G12D; assay type: biochemical
[5] = test system: phosphorylation of ERK, KRAS G12C in NCJ-H358 cells; assay: pERK inhibition assay, KRAS G12C; assay type: cell-based, human; settings: 4 hours
Outline: (§2)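 Cells plated the day before (NCJ-H358 30,000, AGS 20,000, SW620 30,000 per well), then exposed to compound for 4 h at 0.5% DMSO final. Fixed, permeabilized, and phospho-ERK detected by in-cell ELISA (anti-pERK, HRP secondary, TMB, OD450); IC50 from 4-parameter sigmoidal fit.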

[6] = test system: phosphorylation of ERK, KRAS G12V in SW620; assay: pERK inhibition assay, KRAS G12V; assay type: cell-based, human
Outline: as §2

[7] = test system: AGS (ATCC-CRL-1739) cells; assay: Cell viability assay, G12D (AGS); assay type: cell-based, human; settings: KRAS cell viability, 72 hrs, Cell Counting Kit-8
Outline: as §1

[8] = biological target: KRAS G12C-BRAF complex (Homo sapiens (Human), UniProt P01116+P62937, G12C); assay: KRAS-BRAF with CYPA (500 nM) interaction assay (TR-FRET), G12C; assay type: biochemical
[9] = test system: NCI-H358 (ATCC-CRL5807) cells; assay: Cell viability assay, G12C (NCI-H358); assay type: cell-based, human; settings: KRAS cell viability, NCI-H358, 72 hrs, Cell Counting Kit-8
Protocol: The purpose of this cellular assay was to determine the effects of test compounds on the proliferation of human cancer cell lines NCI-H358 (ATCC-CRL5807) cells, AGS (ATCC-CRL-1739) cells, SW620 (ATCC-CCL-227) over a 3-day treatment period by quantifying the amount of NADPH present at endpoint using Cell Counting Kit-8.
Cells were seeded at 5,000 cells/well (NCI-H358), 2,000 cells/well (AGS) 2,000 cells/well (SW620) in 96-well assay plates (Corning-3699) and incubated overnight. On the day of the assay, diluted compounds were then added in a final concentration of 0.5% DMSO. After 72 hrs incubation, a tenth of the volume of cell counting kit 8 (Dnjindo-CK04) was added into each well. Read the signal (OD450 minus OD650) using EnVision after 2 hrs incubation. IC50 was determined by fitting a 4-parameter sigmoidal concentration response model.

[10] = Homo sapiens, SW-620, SW620, 4 hours

KRAS G12D binding to BRAF, sequence (P01116-2 other isoform, or with tags, fused parts or gaps G12D): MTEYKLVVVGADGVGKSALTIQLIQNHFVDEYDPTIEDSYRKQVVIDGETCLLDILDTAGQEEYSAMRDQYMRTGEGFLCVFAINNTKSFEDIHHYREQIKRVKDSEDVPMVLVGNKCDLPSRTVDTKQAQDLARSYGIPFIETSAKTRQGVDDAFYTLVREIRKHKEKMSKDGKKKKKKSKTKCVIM
KRAS G12D binding to BRAF, sequence (P62937 whole entry): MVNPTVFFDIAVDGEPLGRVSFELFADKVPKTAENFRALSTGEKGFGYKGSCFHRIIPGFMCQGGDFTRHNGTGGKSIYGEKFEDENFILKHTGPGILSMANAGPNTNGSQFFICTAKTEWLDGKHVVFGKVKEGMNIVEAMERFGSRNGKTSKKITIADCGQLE
KRAS G12C-BRAF complex, sequence (P01116-2 other isoform, or with tags, fused parts or gaps G12C): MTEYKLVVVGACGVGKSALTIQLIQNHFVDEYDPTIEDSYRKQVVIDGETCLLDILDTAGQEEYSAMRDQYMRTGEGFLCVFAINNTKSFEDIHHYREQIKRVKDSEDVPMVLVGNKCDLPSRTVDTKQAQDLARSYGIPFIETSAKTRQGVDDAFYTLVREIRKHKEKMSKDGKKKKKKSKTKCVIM
KRAS G12C-BRAF complex, sequence (P62937 whole entry): as the sequence (P62937 whole entry) above
KRAS G12V binding to BRAF, sequence (P01116-2 other isoform, or with tags, fused parts or gaps G12V): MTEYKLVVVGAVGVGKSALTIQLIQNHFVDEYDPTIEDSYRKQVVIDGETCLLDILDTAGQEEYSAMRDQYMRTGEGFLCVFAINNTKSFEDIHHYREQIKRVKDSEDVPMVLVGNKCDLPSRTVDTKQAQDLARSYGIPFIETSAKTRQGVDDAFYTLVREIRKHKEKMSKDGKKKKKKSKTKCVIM
KRAS G12V binding to BRAF, sequence (P62937 whole entry): as the sequence (P62937 whole entry) above

SMILES	IC50 ([1]; Homo sapiens, SW-620) [µM]	IC50 [2] [µM]	IC50 [3] [µM]	IC50 [4] [µM]	IC50 ([5]; Homo sapiens) [µM]	IC50 [6, 10] [µM]	IC50 ([7]; Homo sapiens) [µM]	IC50 [8] [µM]	IC50 ([9]; Homo sapiens) [µM]	IC50 [9] [µM]	IC50 [1] [µM]	IC50 [5] [µM]	IC50 ([6]; SW620, 4 hours) [µM]	IC50 [7] [µM]
CO[C@@H](C)c1ncc(N2CCOCC2)cc1-c1c2c3cc(c(F)cc3n1CC(F)(F)F)-c1csc(n1)C[C@H](NC(=O)[C@H](C(C)C)N(C)C(=O)[C@H]1CCN(C(=O)[C@H](F)Cl)C1)C(=O)N1CCC[C@H](N1)C(=O)OCC(C)(C)C2 (atropisomer, axis not shown; (M)) [Example 24, (3S)-1-[(2R)-2-chloro-2-fluoro-acetyl]-N-[(1S)-1-[[(7S,13S)-24-fluoro-(20M)-20-[2-[(1S)-1-methoxyethyl]-5-morpholino-3-pyridyl]-17,17-dimethyl-8,14-dioxo-21-(2,2,2-trifluoroethyl)-15-oxa-4-thia-9,21,27,28-tetrazapentacyclo[17.5.2.1^2,5.1^9,13.0^22,26]octacosa-1(25),2,5(28),19,22(26),23-hexaen-7-yl]carbamoyl]-2-methyl-propyl]-N-methyl-pyrrolidine-3-carboxamide]	0.034	0.012	1.39	> 10	0.005	0.018	0.283	0.053						
CO[C@@H](C)c1ncc(N2CCN(C)CC2)cc1-c1c2c3cc(c(C)cc3n1CC(F)(F)F)-c1csc(n1)C[C@H](NC(=O)[C@H](C(C)C)N(C)C(=O)[C@H]1CCN(C(=O)[C@H](F)Cl)C1)C(=O)N1CCC[C@H](N1)C(=O)OCC(C)(C)C2 (atropisomer, axis not shown; (M)) [Example 3, (3S)-1-[(2R)-2-chloro-2-fluoro-acetyl]-N-[(1S)-1-[[(7S,13S)-(20M)-20-[2-[(1S)-1-methoxyethyl]-5-(4-methylpiperazin-1-yl)-3-pyridyl]-17,17,24-trimethyl-8,14-dioxo-21-(2,2,2-trifluoroethyl)-15-oxa-4-thia-9,21,27,28-tetrazapentacyclo[17.5.2.1^2,5.1^9,13.0^22,26]octacosa-1(25),2,5(28),19,22(26),23-hexaen-7-yl]carbamoyl]-2-methyl-propyl]-N-methyl-pyrrolidine-3-carboxamide]		0.114			0.032	0.138								
CO[C@@H](C)c1ncc(N2CCN(CC(F)(F)F)CC2)cc1-c1c2c3cc(c(F)cc3n1CC(F)(F)F)-c1csc(n1)C[C@H](NC(=O)[C@H](C(C)C)N1CCCC3(CCN(C(=O)[C@H](F)Cl)CC3)C1=O)C(=O)N1CCC[C@H](N1)C(=O)OCC(C)(C)C2 (atropisomer, axis not shown; (M)) [Example 42, (2S)-2-[9-[(2R)-2-chloro-2-fluoro-acetyl]-1-oxo-2,9-diazaspiro[5.5]undecan-2-yl]-N-[(7S,13S)-24-fluoro-(20M)-20-[2-[(1S)-1-methoxyethyl]-5-[4-(2,2,2-trifluoroethyl)piperazin-1-yl]-3-pyridyl]-17,17-dimethyl-8,14-dioxo-21-(2,2,2-trifluoroethyl)-15-oxa-4-thia-9,21,27,28-tetrazapentacyclo[17.5.2.1^2,5.1^9,13.0^22,26]octacosa-1(25),2,5(28),19,22(26),23-hexaen-7-yl]-3-methyl-butanamide]	0.082		7.86	3.97	0.003	0.024	0.044	0.073	< 0.001					
CO[C@@H](C)c1ncc(N2CCN(CC(F)(F)F)CC2)cc1-c1c2c3cc(c(F)cc3n1CC(F)(F)F)-c1csc(n1)C[C@H](NC(=O)[C@H](C(C)C)N(C)C(=O)C1(F)CCN(C(=O)[C@H](F)Cl)CC1)C(=O)N1CCC[C@H](N1)C(=O)OCC(C)(C)C2 (atropisomer, axis not shown; (M)) [Example 44, 1-[(2R)-2-chloro-2-fluoro-acetyl]-4-fluoro-N-[(1S)-1-[[(7S,13S)-24-fluoro-(20M)-20-[2-[(1S)-1-methoxyethyl]-5-[4-(2,2,2-trifluoroethyl)piperazin-1-yl]-3-pyridyl]-17,17-dimethyl-8,14-dioxo-21-(2,2,2-trifluoroethyl)-15-oxa-4-thia-9,21,27,28-tetrazapentacyclo[17.5.2.1^2,5.1^9,13.0^22,26]octacosa-1(25),2,5(28),19,22(26),23-hexaen-7-yl]carbamoyl]-2-methyl-propyl]-N-methyl-piperidine-4-carboxamide]	> 5		0.607	1.34	0.01	0.044	0.134	0.034	< 0.001					
CCn1c(-c2cc(N3CCN(CC(F)(F)F)CC3)cnc2[C@H](C)OC)c2c3cc(c(F)cc31)-c1csc(n1)C[C@H](NC(=O)[C@H](C(C)C)N1CC[C@]3(CCN(C(=O)[C@H](F)Cl)C3)C1=O)C(=O)N1CCC[C@H](N1)C(=O)OCC(C)(C)C2 [Example 38, (2S)-2-[(5S)-7-[(2R)-2-chloro-2-fluoro-acetyl]-1-oxo-2,7-diazaspiro[4.4]nonan-2-yl]-N-[(7S,13S)-21-ethyl-24-fluoro-(20M)-20-[2-[(1S)-1-methoxyethyl]-5-[4-(2,2,2-trifluoroethyl)piperazin-1-yl]-3-pyridyl]-17,17-dimethyl-8,14-dioxo-15-oxa-4-thia-9,21,27,28-tetrazapentacyclo[17.5.2.1^2,5.1^9,13.0^22,26]octacosa-1(25),2,5(28),19,22(26),23-hexaen-7-yl]-3-methyl-butanamide]			0.91	3.3				0.032		< 0.001	0.103	0.001	0.045	0.223
